# Laboratory results from US20130165428A1, “XANTHINE DERIVATIVES, THE PREPARATION THEREOF AND THEIR USE AS PHARMACEUTICAL COMPOSITIONS” (Boehringer Ingelheim Pharma GmbH & Co. KG, priority 2001, published 2013).
# Structures can show the parent of a compound that is named as a salt.
row,melting point [°C],Compound
1,159 to 160,"CC(C)=CCn1c(N2CCCC(N)(C(=O)N3CCCC3)C2)nc2c1c(=O)n(C)c(=O)n2C (stereo not shown) (as salt: sodium) [Example 1(139), 1,3-dimethyl-7-(3-methyl-2-buten-1-yl)-8-[3-amino-3-(pyrrolidin-1-ylcarbonyl)-piperidin-1-yl]-xanthine]"
2,172.5 to 175,"CN[C@H]1CCCC[C@H]1Nc1nc2c(c(=O)n(C)c(=O)n2C)n1CC=C(C)C (relative stereo) [Example 1(77), 1,3-dimethyl-7-(3-methyl-2-buten-1-yl)-8-[cis-(2-methylamino-cyclohexyl)amino]-xanthine]"
3,119,"CC(C)=CCn1c(N2CCC(N)C2)nc2c1c(=O)n(C)c(=O)n2C (stereo not shown) [Example 1(1), 1,3-dimethyl-7-(3-methyl-2-buten-1-yl)-8-(3-amino-pyrrolidin-1-yl)-xanthine]"
4,153 to 154.5,"CC(C)=CCn1c(N2CCCC(N)C2)nc2c1c(=O)n(CCc1c(C)cc(C)cc1C)c(=O)n2C (stereo not shown) [Example 1(36), 1-[2-(2,4,6-trimethyl-phenyl)-ethyl]-3-methyl-7-(3-methyl-2-buten-1-yl)-8-(3-amino-piperidin-1-yl)-xanthine]"
5,130 to 132,"CC(C)=CCn1c(N2CCCC(N)C2)nc2c1c(=O)n(CCc1ccc(Cl)cc1Cl)c(=O)n2C (stereo not shown) [Example 1(37), 1-[2-(2,4-dichloro-phenyl)-ethyl]-3-methyl-7-(3-methyl-2-buten-1-yl)-8-(3-amino-piperidin-1-yl)-xanthine]"
6,136 to 138.6,"CC(C)=CCn1c(N2CCCC(N)C2)nc2c1c(=O)n(CCn1cccc1)c(=O)n2C (stereo not shown) [Example 1(61), 1-[2-(pyrrol-1-yl)-ethyl]-3-methyl-7-(3-methyl-2-buten-1-yl)-8-(3-amino-piperidin-1-yl)-xanthine]"
7,150 to 152,"C#CCCn1c(=O)c2c(nc(N3CCCC(N)C3)n2CC=C(C)C)n(C)c1=O (stereo not shown) [Example 1(65), 1-(3-butyn-1-yl)-3-methyl-7-(3-methyl-2-buten-1-yl)-8-(3-amino-piperidin-1-yl)-xanthine]"
8,111 to 112.6,"C=CCCn1c(=O)c2c(nc(N3CCCC(N)C3)n2CC=C(C)C)n(C)c1=O (stereo not shown) [Example 1(66), 1-(3-butene-1-yl)-3-methyl-7-(3-methyl-2-buten-1-yl)-8-(3-amino-piperidin-1-yl)-xanthine]"
9,112 to 115,"CC(C)=CCn1c(N2CCC[C@H]2CN)nc2c1c(=O)n(C)c(=O)n2C [Example 1(76), 1,3-dimethyl-7-(3-methyl-2-buten-1-yl)-8-{(S)-[2-(aminomethyl)-pyrrolidin-1-yl]}-xanthine]"
10,118.5 to 119.5,"COc1cccc(CCn2c(=O)c3c(nc(N4CCCC(N)C4)n3CC=C(C)C)n(C)c2=O)c1 (stereo not shown) [Example 1(86), 1-[2-(3-methoxy-phenyl)-ethyl]-3-methyl-7-(3-methyl-2-buten-1-yl)-8-(3-amino-piperidin-1-yl)-xanthine]"
11,116.5 to 117.5,"CC(C)=CCn1c(N2CCCC(N)C2)nc2c1c(=O)n(CCc1cccc(Br)c1)c(=O)n2C (stereo not shown) [Example 1(87), 1-[2-(3-bromo-phenyl)-ethyl]-3-methyl-7-(3-methyl-2-buten-1-yl)-8-(3-amino-piperidin-1-yl)-xanthine]"
12,126.8 to 127.5,"CC(C)=CCn1c(N2CCCC(N)C2)nc2c1c(=O)n(CCc1cccc(F)c1)c(=O)n2C (stereo not shown) [Example 1(98), 1-[2-(3-fluoro-phenyl)-ethyl]-3-methyl-7-(3-methyl-2-buten-1-yl)-8-(3-amino-piperidin-1-yl)-xanthine]"
13,120.8 to 122,"CC(C)=CCn1c(N2CCCC(N)C2)nc2c1c(=O)n(CCc1cccc([N+](=O)[O-])c1)c(=O)n2C (stereo not shown) [Example 1(99), 1-[2-(3-nitro-phenyl)-ethyl]-3-methyl-7-(3-methyl-2-buten-1-yl)-8-(3-amino-piperidin-1-yl)-xanthine]"
